Data as given in patent publication US4374840A, “Certain phenyl or pyridyl-propanol-amines containing alkyl-nitrate moieties” (Kowa Company, Ltd., priority 1980, dated 1983).

Key:
[1] = Test [I]: blood pressure in pentobarbital-anesthetized dogs, i.v.; type: in vivo; parameters: key to duration of hypotensive action (mark (*): especially longlasting): +: a reduction of less than 20%; ++: a reduction of 20 to 50%; +++: a reduction of more than 50%; (*): The hypotensive action is especially longlasting; conditions: anesthetized adult dogs, 20 μg/kg i.v.; for inhibition in vivo at 0.02 mg/kg: Canis lupus familiaris, iv, read-out: Reduction in blood pressure
Procedure: (§1) Adult dogs were anesthetized by intravenous administration of 30 mg/kg of pentobarbital, and examined under artificial respiration for the action of the compound of this invention on blood pressure and heart rate.
A catheter was inserted into the femoral artery, and connected to a pressure transducer for measurement of the blood pressure.
(§2) Dose and Method of Administration:
(§3) The test drug was dissolved in 0.1 N hydrochloric acid, and administered intravenously in a dose of 20 μg/kg.
(§4) The numbered compounds in the following tables correspond to the compounds obtained in the correspondingly numbered Examples given hereinbelow.

[2] = Test [I]: heart rate in pentobarbital-anesthetized dogs, i.v.; type: in vivo; conditions: Canis lupus familiaris, iv; anesthetized adult dogs, 20 μg/kg i.v.; read-out: Reduction in heart rate
Procedure: as §1
Measured by pulse pressure changes.
as §2, §3, §4

[3] = Test [III]: left ventricular end diastolic pressure (LVEDP) in anesthetized dogs; type: in vivo; conditions: anesthetized mongrel dogs, 20 μg/kg i.v.
Procedure: (§5) Mongrel dogs were anesthetized by intravenous administration of 30 mg/kg of pentobarbital, and examined under artifical respiration for the following items.
(1) Left ventricular end diastolic pressure (LVEDP)
Measured by advancing a catheter transducer to the left ventricle.
as §2
(§6) Each of the compounds shown in Tables 2 to 4 was dissolved in 0.1 N hydrochloric acid, and intravenously administered in a dose of 20 μg/kg.

[4] = Test [III]: coronary blood flow in anesthetized dogs; type: in vivo; conditions: anesthetized mongrel dogs, 20 μg/kg i.v.
Procedure: as §5
Measured by setting an electro magnetic flow meter probe in the left circumflex branch.
as §2, §6

[5] = Test [III]: common carotid blood flow in anesthetized dogs; type: in vivo; conditions: anesthetized mongrel dogs, 20 μg/kg i.v.
Procedure: as §5
(3) Common carotid blood flow
Measured by setting an electromagnetic flow probe at the common carotid artery.
as §2, §6

[6] = tested on: isolated atrial muscle of a guinea pig; experiment: Test [II]: antagonistic action against isoproterenol on isolated atrial muscle (β-blocking action); conditions: 10^-9 to 4×10^-4 mole, control drug propranolol hydrochloride
Procedure: The isolated atrial muscle of a guinea pig was used, and its contractile force and heart rate were recorded. Thus, the antagonistic action of the test drug against isoproterenol was examined. The drug was used in a concentration of 10^-9 to 4×10^-4 mole. As a control drug, propranolol hydrochloride was used.

SMILES	inhibition in vivo at 0.02 mg/kg [1]	inhibition in vivo at 0.02 mg/kg [2]	Decrease rate (%) in LVEDP [3]	Increase rate (%) in coronary flow [4]	antagonistic action against isoproterenol, compared with propranolol hydrochloride [6]	other results
CC(C)NCC(O)COc1ccc(CCCCO[N+](=O)[O-])cc1 (stereo not shown) [Compound 62, 1-iso-Propylamino-3-[4-(4-nitratobutyl)phenoxy]-2-propanol]	> 50%	20 to 50%	.dwnarw. (a decrease of less than 20%)	–	–	–
CC(C)NCC(O)COc1ccc(OCCO[N+](=O)[O-])c(C(N)=O)c1 (stereo not shown) [Compound 55, 1-iso-Propylamino-3-[3-carbamoyl-4-(2-nitratoethoxy)phenoxy]-2-propanol]	20 to 50%	> 50%	–	–	–	–
C=CCOc1cc(OCCO[N+](=O)[O-])c(Cl)cc1OCC(O)CNC(C)C (stereo not shown) [Compound 33, 1-iso-Propylamino-3-[2-allyloxy-5-chloro-4-(2-nitratoethoxy)phenoxy]-2-propanol]	20 to 50%	20 to 50%	.dwnarw. (a decrease of less than 20%)	.uparw. (an increase of 30% or less)	–	duration of hypotensive action (mark (*): especially longlasting) [1]: (*); Increase rate (%) in flow in the common carotid artery [5]: .uparw. (an increase of 30% or less)
COc1ccc(OCC(O)CNC(C)C)cc1OCCO[N+](=O)[O-] (stereo not shown) [Compound 3, 1-iso-Propylamino-3-[[4-methoxy-3-(2-nitratoethoxy)]phenoxy]-2-propanol]	–	–	–	–	same degree of action as the control drug	–
CC(C)NCC(O)COc1ccc(OCCCO[N+](=O)[O-])cc1 (stereo not shown) [Compound 7, 1-iso-Propylamino-3-[4-(3-nitratopropoxy)phenoxy]-2-propanol]	20 to 50%	> 50%	.dwnarw..dwnarw..dwnarw. (a decrease of more than 40%)	.uparw..uparw. (an increase of more than 30%)	–	Increase rate (%) in flow in the common carotid artery [5]: .uparw..uparw. (an increase of more than 30%)
COc1cc(OCCO[N+](=O)[O-])ccc1OCC(O)CNC(C)C (stereo not shown) [Compound 17, 1-iso-Propylamino-3-[2-methoxy-4-(2-nitratoethoxy)phenoxy]-2-propanol]	–	–	–	–	same degree of action as the control drug	–
C=CCOc1cc(OCCO[N+](=O)[O-])ccc1OCC(O)CNC(C)C (stereo not shown) [Compound 23, 1-iso-Propylamino-3-[2-allyloxy-4-(2-nitratoethoxy)phenoxy]-2-propanol]	20 to 50%	> 50%	.dwnarw..dwnarw. (a decrease of 20 to 40%)	–	–	–
CC(C)NCC(O)COc1ccc(OCCO[N+](=O)[O-])cc1OCCO[N+](=O)[O-] (stereo not shown) [Compound 50, 1-iso-Propylamino-3-[2,4-di-(2-nitratoethoxy)phenoxy]-2-propanol]	> 50%	> 50%	.dwnarw..dwnarw. (a decrease of 20 to 40%)	–	–	–
CC(C)NCC(O)COc1c(OCCO[N+](=O)[O-])cccc1OCCO[N+](=O)[O-] (stereo not shown) [Compound 63, 1-iso-Propylamino-3-[2,6-di(2-nitratoethoxy)phenoxy]-2-propanol]	> 50%	> 50%	–	–	–	–
CC(C)NCC(O)COc1cccc(OCCO[N+](=O)[O-])c1 (stereo not shown) [Compound 1, 1-iso-Propylamino-3-[3-(2-nitratoethoxy)phenoxy]-2-propanol]	–	–	.dwnarw..dwnarw..dwnarw. (a decrease of more than 40%)	–	–	–
CC(C)NCC(O)COc1ccc(CCCO[N+](=O)[O-])cc1 (stereo not shown) [Compound 61, 1-iso-Propylamino-3-[4-(3-nitratopropyl)phenoxy]-2-propanol]	> 50%	> 50%	–	–	–	Increase rate (%) in flow in the common carotid artery [5]: .uparw. (an increase of 30% or less)
COc1ccc(OCCO[N+](=O)[O-])cc1OCC(O)CNC(C)C (stereo not shown) [Compound 13, 1-iso-Propylamino-3-[2-methoxy-5-(2-nitratoethoxy)phenoxy]-2-propanol]	–	–	–	–	same degree of action as the control drug	–
CC(C)NCC(O)COc1cccc(OCCO[N+](=O)[O-])n1 (stereo not shown) [Compound 15, 1-iso-Propylamino-3-[6-(2-nitratoethoxy)-2-pyridyloxy]-2-propanol]	–	–	–	–	same degree of action as the control drug	–
CC(C)NCC(O)COc1ccc(OCCO[N+](=O)[O-])c(Cl)c1 (stereo not shown) [Compound 34, 1-iso-Propylamino-3-[3-chloro-4-(2-nitratoethoxy)phenoxy]-2-propanol]	–	–	–	.uparw. (an increase of 30% or less)	–	Increase rate (%) in flow in the common carotid artery [5]: .uparw. (an increase of 30% or less)
CC(C)NCC(O)COc1ccccc1OCCCCCCO[N+](=O)[O-] (stereo not shown) [Compound 32, 1-iso-Propylamino-3-[2-(6-nitratohexyloxy)phenoxy]-2-propanol]	–	–	–	.uparw. (an increase of 30% or less)	–	–
CCC(CC)NCC(O)COc1cccc(OCCCO[N+](=O)[O-])c1 (stereo not shown) [Compound 26, 1-(1-Ethylpropyl)amino-3-[3-(3-nitratopropoxy)phenoxy]-2-propanol]	–	–	–	.uparw. (an increase of 30% or less)	–	Increase rate (%) in flow in the common carotid artery [5]: .uparw. (an increase of 30% or less)
CC(C)NCC(O)COc1ccccc1OCCO[N+](=O)[O-] (stereo not shown) [Compound 2, 1-iso-Propylamino-3-[2-(2-nitrotoethoxy)phenoxy]-2-propanol]	20 to 50%	20 to 50%	–	.uparw..uparw. (an increase of more than 30%)	–	–
COc1ccc(C(O)CNC(C)CCc2ccccc2)cc1OCCO[N+](=O)[O-] (stereo not shown) [Compound 4, 1-[4-methoxy-3-(2-nitratoethoxy)phenyl]-2-(1-methyl-3-phenylpropyl)aminoethanol]	–	–	–	–	same degree of action as the control drug	–
CC(CCc1ccccc1)NCC(O)c1ccccc1OCCO[N+](=O)[O-] (stereo not shown) [Compound 14, 1-[2-(2-Nitratoethoxy)phenyl]-2-(1-methyl-3-phenylpropyl)aminoethanol]	–	–	–	–	same degree of action as the control drug	–
CC(C)NCC(O)COc1ccccc1OCCCO[N+](=O)[O-] (stereo not shown) [Compound 8, 1-iso-Propylamino-3-[2-(3-nitratopropoxy)phenoxy]-2-propanol]	–	–	–	–	same degree of action as the control drug	–
CC(C)NCC(O)COc1ccc(OCCO[N+](=O)[O-])cc1 (stereo not shown) [Compound 6, 1-iso-Propylamino-3-[4-(2-nitratoethoxy)phenoxy]-2-propanol]	> 50%	> 50%	.dwnarw..dwnarw. (a decrease of 20 to 40%)	.uparw..uparw. (an increase of more than 30%)	–	duration of hypotensive action (mark (*): especially longlasting) [1]: (*); Increase rate (%) in flow in the common carotid artery [5]: .uparw..uparw. (an increase of more than 30%)
